From patent publication US20180244699A1, “1-HYDROXY-3H-2,1-BENZOXABOROLE DERIVATIVES AND THEIR USE AS MICROBIOCIDES” (Syngenta Participations AG, priority 2015, published 2018)

The compounds below were run on Pythium ultimum (assay: Pythium ultimum / liquid culture (seedling damping off)). Settings: Globisporangium ultimum, growth inhibition photometrically 2-3 days after application, compared to untreated control.
Format: cell-based
Method: 15. Pythium ultimum/Liquid Culture (Seedling Damping Off) Mycelia fragments and oospores of a newly grown liquid culture of the fungus are directly mixed into nutrient broth (PDB potato dextrose broth). After placing a (DMSO) solution of test compound into a microtiter plate (96-well format), the nutrient broth containing the fungal mycelia/spore mixture is added. The test plates are incubated at 24° C. and the inhibition of growth is determined photometrically 2-3 days after application.
For `COc1c(C(=O)NCc2ccccn2)ccc2c1B(O)OC2` [Compound 7, 1-hydroxy-7-methoxy-N-(2-pyridylmethyl)-3H-2,1-benzoxaborole-6-carboxamide], the inhibition of growth at 20 ppm was no less than 80%.
For `COc1c(C(=O)N(C)C)ccc2c1B(O)OC2` [Compound 11, 1-hydroxy-7-methoxy-N,N-dimethyl-3H-2,1-benzoxaborole-6-carboxamide], the inhibition of growth at 20 ppm was no less than 80%.
`CN(C)C(=O)c1ccc2c(c1Cl)B(O)OC2` [Compound 13, 7-chloro-1-hydroxy-N,N-dimethyl-3H-2,1-benzoxaborole-6-carboxamide] showed an inhibition of growth at 20 ppm of no less than 80%.
With `CCOC(=O)N1CCC(NC(=O)c2ccc3c(c2OC)B(O)OC3)CC1` [Compound 18, ethyl 4-[(1-hydroxy-7-methoxy-3H-2,1-benzoxaborole-6-carbonyl)amino]piperidine-1-carboxylate] the inhibition of growth at 20 ppm was no less than 80%.
Compound `COc1c(C(=O)NC(=O)N(C)C)ccc2c1B(O)OC2` [Compound 21, N-(dimethylcarbamoyl)-1-hydroxy-7-methoxy-3H-2,1-benzoxaborole-6-carboxamide] has an inhibition of growth at 20 ppm of no less than 80%.
With `COc1c(C(=O)Nc2cc(C)cc(C)n2)ccc2c1B(O)OC2` [Compound 22, N-(4,6-dimethyl-2-pyridyl)-1-hydroxy-7-methoxy-3H-2,1-benzoxaborole-6-carboxamide] the inhibition of growth at 20 ppm was no less than 80%.
`COC(=O)C1CCN(C(=O)c2ccc3c(c2OC)B(O)OC3)CC1` [Compound 24, methyl 1-(1-hydroxy-7-methoxy-3H-2,1-benzoxaborole-6-carbonyl)piperidine-4-carboxylate] showed an inhibition of growth at 20 ppm of no less than 80%.
Compound `COCCN(C)C(=O)c1ccc2c(c1OC)B(O)OC2` [Compound 27, 1-hydroxy-7-methoxy-N-(2-methoxyethyl)-N-methyl-3H-2,1-benzoxaborole-6-carboxamide] has an inhibition of growth at 20 ppm of no less than 80%.
Compound `COc1c(C(=O)N(C)c2nc(C)c(S(N)(=O)=O)s2)ccc2c1B(O)OC2` [Compound 28, 1-hydroxy-7-methoxy-N-methyl-N-(4-methyl-5-sulfamoyl-thiazol-2-yl)-3H-2,1-benzoxaborole-6-carboxamide] has an inhibition of growth at 20 ppm of no less than 80%.
Work on `COc1c(C(=O)N(C)c2ccccn2)ccc2c1B(O)OC2` [Compound 30, 1-hydroxy-7-methoxy-N-methyl-N-(2-pyridyl)-3H-2,1-benzoxaborole-6-carboxamide] yielded an inhibition of growth at 20 ppm of no less than 80%.
In the case of `COc1c(C(=O)NCC(C)C)ccc2c1B(O)OC2` [Compound 36, 1-hydroxy-N-isobutyl-7-methoxy-3H-2,1-benzoxaborole-6-carboxamide], the inhibition of growth at 20 ppm was no less than 80%.
Compound `CCOC(=O)C1(NC(=O)c2ccc3c(c2OC)B(O)OC3)CC1` [Compound 37, ethyl 1-[(1-hydroxy-7-methoxy-3H-2,1-benzoxaborole-6-carbonyl)amino]cyclopropanecarboxylate] has an inhibition of growth at 20 ppm of no less than 80%.
Compound `COc1c(C(=O)Nc2c(C(C)C)ccnc2C(C)C)ccc2c1B(O)OC2` [Compound 38, N-(2,4-diisopropyl-3-pyridyl)-1-hydroxy-7-methoxy-3H-2,1-benzoxaborole-6-carboxamide] has an inhibition of growth at 20 ppm of no less than 80%.
Compound `COc1c(C(=O)N(C)c2cc(Cl)cnc2Cl)ccc2c1B(O)OC2` [Compound 39, N-(2,5-dichloro-3-pyridyl)-1-hydroxy-7-methoxy-N-methyl-3H-2,1-benzoxaborole-6-carboxamide] has an inhibition of growth at 20 ppm of no less than 80%.
For `CCSc1nc(NC(=O)c2ccc3c(c2OC)B(O)OC3)nn1C` [Compound 40, N-(5-ethylsulfanyl-1-methyl-1,2,4-triazol-3-yl)-1-hydroxy-7-methoxy-3H-2,1-benzoxaborole-6-carboxamide], the inhibition of growth at 20 ppm was no less than 80%.
With `COc1c(C(=O)Nc2ccnc(C)c2)ccc2c1B(O)OC2` [Compound 42, 1-hydroxy-7-methoxy-N-(2-methyl-4-pyridyl)-3H-2,1-benzoxaborole-6-carboxamide] the inhibition of growth at 20 ppm was no less than 80%.
Compound `COc1c(C(=O)Nc2nnc(C)[nH]2)ccc2c1B(O)OC2` [Compound 43, 1-hydroxy-7-methoxy-N-(5-methyl-4H-1,2,4-triazol-3-yl)-3H-2,1-benzoxaborole-6-carboxamide] has an inhibition of growth at 20 ppm of no less than 80%.
Work on `CCC(NC(=O)c1ccc2c(c1OC)B(O)OC2)C(=O)OC` (centres unmarked) [Compound 44, methyl 2-[(1-hydroxy-7-methoxy-3H-2,1-benzoxaborole-6-carbonyl)amino]butanoate] yielded an inhibition of growth at 20 ppm of no less than 80%.
Work on `COc1c(C(=O)NC(=S)N(C)Cc2cccnc2)ccc2c1B(O)OC2` [Compound 47, 1-hydroxy-7-methoxy-N-[methyl(3-pyridylmethyl)carbamothioyl]-3H-2,1-benzoxaborole-6-carboxamide] yielded an inhibition of growth at 20 ppm of no less than 80%.
With `CCN(Cc1cccnc1)C(=O)c1ccc2c(c1OC)B(O)OC2` [Compound 48, N-ethyl-1-hydroxy-7-methoxy-N-(3-pyridylmethyl)-3H-2,1-benzoxaborole-6-carboxamide] the inhibition of growth at 20 ppm was no less than 80%.
For `COc1c(C(=O)N(C)c2ncn[nH]2)ccc2c1B(O)OC2` [Compound 50, 1-hydroxy-7-methoxy-N-methyl-N-(1H-1,2,4-triazol-5-yl)-3H-2,1-benzoxaborole-6-carboxamide], the inhibition of growth at 20 ppm was no less than 80%.
`COc1n[nH]c(NC(=O)c2ccc3c(c2OC)B(O)OC3)n1` [Compound 51, 1-hydroxy-7-methoxy-N-(3-methoxy-1H-1,2,4-triazol-5-yl)-3H-2,1-benzoxaborole-6-carboxamide] showed an inhibition of growth at 20 ppm of no less than 80%.
`COc1c(C(=O)NCCOc2ccccc2)ccc2c1B(O)OC2` [Compound 56, 1-hydroxy-7-methoxy-N-(2-phenoxyethyl)-3H-2,1-benzoxaborole-6-carboxamide] showed an inhibition of growth at 20 ppm of no less than 80%.
In the case of `COc1c(C(=O)NCc2ccc(Cl)nc2)ccc2c1B(O)OC2` [Compound 59, N-[(6-chloro-3-pyridyl)methyl]-1-hydroxy-7-methoxy-3H-2,1-benzoxaborole-6-carboxamide], the inhibition of growth at 20 ppm was no less than 80%.
Compound `COc1c(C(=O)NC(C)(C)C)ccc2c1B(O)OC2` [Compound 60, N-tert-butyl-1-hydroxy-7-methoxy-3H-2,1-benzoxaborole-6-carboxamide] has an inhibition of growth at 20 ppm of no less than 80%.
`COc1c(C(=O)NCC2CC(F)(F)C2(F)F)ccc2c1B(O)OC2` (centres unmarked) [Compound 62, 1-hydroxy-7-methoxy-N-[(2,2,3,3-tetrafluorocyclobutyl)methyl]-3H-2,1-benzoxaborole-6-carboxamide] showed an inhibition of growth at 20 ppm of no less than 80%.
`COC(=O)c1cc(NC(=O)c2ccc3c(c2OC)B(O)OC3)cn1C` [Compound 67, methyl 4-[(1-hydroxy-7-methoxy-3H-2,1-benzoxaborole-6-carbonyl)amino]-1-methyl-pyrrole-2-carboxylate] was tested, and the inhibition of growth at 20 ppm was no less than 80%.
For `COc1c(C(=O)NCc2ncc(C(F)(F)F)cc2Cl)ccc2c1B(O)OC2` [Compound 68, N-[[3-chloro-5-(trifluoromethyl)-2-pyridyl]methyl]-1-hydroxy-7-methoxy-3H-2,1-benzoxaborole-6-carboxamide], the inhibition of growth at 20 ppm was no less than 80%.
For `CCC1COC(CNC(=O)c2ccc3c(c2OC)B(O)OC3)O1` (centres unmarked) [Compound 69, N-[(4-ethyl-1,3-dioxolan-2-yl)methyl]-1-hydroxy-7-methoxy-3H-2,1-benzoxaborole-6-carboxamide], the inhibition of growth at 20 ppm was no less than 80%.
In the case of `COc1c(C(=O)NCc2ccc(C)o2)ccc2c1B(O)OC2` [Compound 70, 1-hydroxy-7-methoxy-N-[(5-methyl-2-furyl)methyl]-3H-2,1-benzoxaborole-6-carboxamide], the inhibition of growth at 20 ppm was no less than 80%.
In the case of `COc1c(C(=O)n2nc(N)cc2C)ccc2c1B(O)OC2` [Compound 71, (3-amino-5-methyl-pyrazol-1-yl)-(1-hydroxy-7-methoxy-3H-2,1-benzoxaborol-6-yl)methanone], the inhibition of growth at 20 ppm was no less than 80%.
Work on `COc1c(C(=O)N2CCCC2CO)ccc2c1B(O)OC2` (centres unmarked) [Compound 72, (1-hydroxy-7-methoxy-3H-2,1-benzoxaborol-6-yl)-[2-(hydroxymethyl)pyrrolidin-1-yl]methanone] yielded an inhibition of growth at 20 ppm of no less than 80%.
With `COc1c(C(=O)OCn2cncn2)ccc2c1B(O)OC2` [Compound 73, 1,2,4-triazol-1-ylmethyl 1-hydroxy-7-methoxy-3H-2,1-benzoxaborole-6-carboxylate] the inhibition of growth at 20 ppm was no less than 80%.
With `COc1c(C(=O)OCC(C)(F)F)ccc2c1B(O)OC2` [Compound 74, 2,2-difluoropropyl 1-hydroxy-7-methoxy-3H-2,1-benzoxaborole-6-carboxylate] the inhibition of growth at 20 ppm was no less than 80%.
With `COc1c(C(=O)OCC(C)=O)ccc2c1B(O)OC2` [Compound 76, acetonyl 1-hydroxy-7-methoxy-3H-2,1-benzoxaborole-6-carboxylate] the inhibition of growth at 20 ppm was no less than 80%.
In the case of `COc1cc(COC(=O)c2ccc3c(c2OC)B(O)OC3)nc(OC)n1` [Compound 78, (2,6-dimethoxypyrimidin-4-yl)methyl 1-hydroxy-7-methoxy-3H-2,1-benzoxaborole-6-carboxylate], the inhibition of growth at 20 ppm was no less than 80%.
Work on `COc1c(C(=O)OCc2ccncc2)ccc2c1B(O)OC2` [Compound 106, 4-pyridylmethyl 1-hydroxy-7-methoxy-3H-2,1-benzoxaborole-6-carboxylate] yielded an inhibition of growth at 20 ppm of no less than 80%.
For `COC(=O)C[C@H](OC(=O)c1ccc2c(c1OC)B(O)OC2)C(=O)OC` [Compound 108, dimethyl (2S)-2-(1-hydroxy-7-methoxy-3H-2,1-benzoxaborole-6-carbonyl)oxybutanedioate], the inhibition of growth at 20 ppm was no less than 80%.
Compound `COc1c(C(=O)OCCN(C)C(=O)OC(C)(C)C)ccc2c1B(O)OC2` [Compound 112, 2-[tert-butoxycarbonyl(methyl)amino]ethyl 1-hydroxy-7-methoxy-3H-2,1-benzoxaborole-6-carboxylate] has an inhibition of growth at 20 ppm of no less than 80%.
In the case of `COc1c(C(=O)OCC2COC(=O)O2)ccc2c1B(O)OC2` (centres unmarked) [Compound 113, (2-oxo-1,3-dioxolan-4-yl)methyl 1-hydroxy-7-methoxy-3H-2,1-benzoxaborole-6-carboxylate], the inhibition of growth at 20 ppm was no less than 80%.
For `COc1c(C(=O)OC2COCOC2)ccc2c1B(O)OC2` [Compound 122, 1,3-dioxan-5-yl 1-hydroxy-7-methoxy-3H-2,1-benzoxaborole-6-carboxylate], the inhibition of growth at 20 ppm was no less than 80%.
